Reference: publication PMC6522510 (Nature Communications, 2019)
Like-named read-outs stand apart in the source and are kept apart here.

Columns and labels:
Design in all cases: species or system AML cell lines (8); Primary HTS, single concentration about 10 uM, Cell Titer Glo viability; log10 luminescence, per cent inhibition relative to cycloheximide control
Conditions in all cases: 72 h, relative to cycloheximide control, log10 luminescence, inhibitor
U937 = tested on: U937
CHRF288-11 = tested on: CHRF288-11
M07e = tested on: M07e
ML-2 = tested on: ML-2
MV4-11 = tested on: MV4-11
CMS = tested on: CMS
CMK = tested on: CMK
MOLM-13 = tested on: MOLM-13

Structure (SMILES): CCn1c(-c2nonc2N)nc2c(N3CCCC3)nccc21 [SJ000573261-1, DW100508-128A1]
- U937 %inh (U937): -1.967%
- CHRF288-11 %inh (CHRF288-11): 2.981%
- M07e %inh (M07e): 5.656%
- ML-2 %inh (ML-2): 3.187%
- MV4-11 %inh (MV4-11): 6.029%
- CMS %inh (CMS): 5.321%
- CMK %inh (CMK): 3.861%
- MOLM-13 %inh (MOLM-13): 1.048%

Structure (SMILES): Nc1nccc(-c2c(-c3ccc(F)cc3)ncn2C2CCNCC2)n1 [SJ000573168-1, JB-19127-269D | LD19161-244A1]
- U937 %inh (U937; U937 %inh, 10 µM): 27.96%
- CHRF288-11 %inh (CHRF288-11; CHRF288-11 %inh, 10 µM): 34.51%
- M07e %inh (M07e; M07e %inh, 10 µM): 19.95%
- ML-2 %inh (ML-2; ML-2 %inh, 10 µM): 22.46%
- MV4-11 %inh (MV4-11; MV4-11 %inh, 10 µM): 77.89%
- CMS %inh (CMS; CMS %inh, 10 µM): 7.951%
- CMK %inh (CMK; CMK %inh, 10 µM): 44.14%
- MOLM-13 %inh (MOLM-13; MOLM-13 %inh, 10 µM): 64.89%

Structure (SMILES): CS(=O)(=O)CCNCc1ccc(-c2ccc3ncnc(Nc4ccc(OCc5ccccc5)c(Br)c4)c3c2)o1 [SJ000573011-1, U14801/114/2]
- U937 %inh (U937): -1.717%
- CHRF288-11 %inh (CHRF288-11): 1.432%
- M07e %inh (M07e): -3.258%
- ML-2 %inh (ML-2): -0.7119%
- MV4-11 %inh (MV4-11): 1.235%
- CMS %inh (CMS): 2.264%
- CMK %inh (CMK): 0.7024%
- MOLM-13 %inh (MOLM-13): 0.135%

Structure (SMILES): N#Cc1cnc2cnc(NCc3cccnc3)cc2c1Nc1ccc(F)c(Cl)c1 [SJ000773185-1, TPL2 KINASE INHIBITOR]
- U937 %inh (U937): 7.932%
- CHRF288-11 %inh (CHRF288-11): 6.987%
- M07e %inh (M07e): 3.597%
- ML-2 %inh (ML-2): -0.1066%
- MV4-11 %inh (MV4-11): 3.7%
- CMS %inh (CMS): -1.042%
- CMK %inh (CMK): 12.32%
- MOLM-13 %inh (MOLM-13): 88.46%

Structure (SMILES): Nc1c(C(=O)c2cccc(C#CCN3CCCCC3)c2)cnn1-c1ccc(F)cc1 [SJ000581090-1]
- U937 %inh (U937): 7.38%
- CHRF288-11 %inh (CHRF288-11): 2.1%
- M07e %inh (M07e): 8.075%
- ML-2 %inh (ML-2): 0.9731%
- MV4-11 %inh (MV4-11): 1.177%
- CMS %inh (CMS): 8.688%
- CMK %inh (CMK): -1.859%
- MOLM-13 %inh (MOLM-13): 0.3011%

Structure (SMILES): C[C@H]1O[C@@H](O[C@H]2[C@@H](O)C[C@H](O[C@H]3[C@@H](O)C[C@H](O[C@H]4CC[C@@]5(C)[C@H](CC[C@@H]6[C@@H]5C[C@@H](O)[C@]5(C)[C@@H](C7=CC(=O)OC7)CC[C@]65O)C4)O[C@@H]3C)O[C@@H]2C)C[C@H](O)[C@@H]1O [SJ000285739-5, DIGOXIN]
- U937 %inh (U937; U937 %inh, 10 µM): 89.45%
- CHRF288-11 %inh (CHRF288-11; CHRF288-11 %inh, 10 µM): 126.2%
- M07e %inh (M07e; M07e %inh, 10 µM): 115.6%
- ML-2 %inh (ML-2; ML-2 %inh, 10 µM): 70.4%
- MV4-11 %inh (MV4-11; MV4-11 %inh, 10 µM): 85.53%
- CMS %inh (CMS; CMS %inh, 10 µM): 110.4%
- CMK %inh (CMK; CMK %inh, 10 µM): 94.03%
- MOLM-13 %inh (MOLM-13; MOLM-13 %inh, 10 µM): 106.4%

Structure (SMILES): CCOc1ccc2c(-c3ccnc(Nc4cccc(C(F)(F)F)c4)n3)cnn2n1 [SJ000573265-1, U17838/110/3]
- U937 %inh (U937): -3.226%
- CHRF288-11 %inh (CHRF288-11): 2.566%
- M07e %inh (M07e): 6.84%
- ML-2 %inh (ML-2): 2.429%
- MV4-11 %inh (MV4-11): 2.829%
- CMS %inh (CMS): 0.8077%
- CMK %inh (CMK): -2.107%
- MOLM-13 %inh (MOLM-13): 1.961%

Structure (SMILES): COc1ccc(C(Cl)=C(c2ccc(OC)cc2)c2ccc(OC)cc2)cc1 [SJ000285822-4, CHLOROTRIANISENE]
- U937 %inh (U937): 7.913%
- CHRF288-11 %inh (CHRF288-11): -2.199%
- M07e %inh (M07e): 9.609%
- ML-2 %inh (ML-2): 4.119%
- MV4-11 %inh (MV4-11): 5.688%
- CMS %inh (CMS): 1.562%
- CMK %inh (CMK): 7.136%
- MOLM-13 %inh (MOLM-13): 5.231%

Structure (SMILES): O=C1NC(=O)/C(=C\c2ccc3nccnc3c2)S1 [SJ000534768-4, PI 3-K-GAMMA-INHIBITOR | 648450-29-7 | AS-605240 | AS605240 | PI 3-KY INHIBITOR]
- U937 %inh (U937; U937 %inh, 10 µM): 0.2634%
- CHRF288-11 %inh (CHRF288-11; CHRF288-11 %inh, 10 µM): -3.707%
- M07e %inh (M07e; M07e %inh, 10 µM): 2.923%
- ML-2 %inh (ML-2; ML-2 %inh, 10 µM): 1.156%
- MV4-11 %inh (MV4-11; MV4-11 %inh, 10 µM): -0.9615%
- CMS %inh (CMS; CMS %inh, 10 µM): 2.882%
- CMK %inh (CMK; CMK %inh, 10 µM): 2.377%
- MOLM-13 %inh (MOLM-13; MOLM-13 %inh, 10 µM): 1.092%

Structure (SMILES): COC[C@@H](NC(=O)[C@@H](NC(=O)[C@H](CCCc1ccc(-c2ccccc2)c(C)c1)CC(=O)O)C(C)(C)C)c1ccccc1 [SJ000772423-1, UK 370106]
- U937 %inh (U937): 2.263%
- CHRF288-11 %inh (CHRF288-11): 6.021%
- M07e %inh (M07e): 2.4%
- ML-2 %inh (ML-2): 0.2215%
- MV4-11 %inh (MV4-11): 2.629%
- CMS %inh (CMS): 4.79%
- CMK %inh (CMK): -0.5196%
- MOLM-13 %inh (MOLM-13): 2.493%

Structure (SMILES): COc1ccc(-c2ccncc2)cc1C(N)=O [SJ000573127-1, R12444/16/1]
- U937 %inh (U937): 2.206%
- CHRF288-11 %inh (CHRF288-11): -1.562%
- M07e %inh (M07e): 1.948%
- ML-2 %inh (ML-2): 2.021%
- MV4-11 %inh (MV4-11): -1.177%
- CMS %inh (CMS): 5.051%
- CMK %inh (CMK): 5.063%
- MOLM-13 %inh (MOLM-13): 4.454%

Structure (SMILES): OCCN1CCN(CCCN2c3ccccc3Sc3ccc(Cl)cc32)CC1 [SJ000286016-7, PERPHENAZINE]
- U937 %inh (U937; U937 %inh, 10 µM): -2.208%
- CHRF288-11 %inh (CHRF288-11; CHRF288-11 %inh, 10 µM): -1.811%
- M07e %inh (M07e; M07e %inh, 10 µM): 0.915%
- ML-2 %inh (ML-2; ML-2 %inh, 10 µM): -0.4093%
- MV4-11 %inh (MV4-11; MV4-11 %inh, 10 µM): 1.352%
- CMS %inh (CMS; CMS %inh, 10 µM): 1.171%
- CMK %inh (CMK; CMK %inh, 10 µM): 1.286%
- MOLM-13 %inh (MOLM-13; MOLM-13 %inh, 10 µM): -1.496%

Structure (SMILES): O=C(Nc1ccc(Oc2ccc3[nH]c(NC(=O)c4ccccc4)nc3c2)cc1)Nc1cc(C(F)(F)F)ccc1F [SJ000573149-1, T261/94/4]
- U937 %inh (U937): 43.21%
- CHRF288-11 %inh (CHRF288-11): 9.652%
- M07e %inh (M07e): 22.27%
- ML-2 %inh (ML-2): 33.71%
- MV4-11 %inh (MV4-11): 91.44%
- CMS %inh (CMS): 32.92%
- CMK %inh (CMK): 59.46%
- MOLM-13 %inh (MOLM-13): 108.7%

Structure (SMILES): CCCCCNC(=O)[C@@H]1CCCN2C(=O)CC[C@H](NC(=O)[C@H](Cc3ccc(OP(=O)(O)O)cc3)NC(C)=O)C(=O)N12 [SJ000580996-1]
- U937 %inh (U937): 0.5533%
- CHRF288-11 %inh (CHRF288-11): -2.344%
- M07e %inh (M07e): -1.329%
- ML-2 %inh (ML-2): -1.38%
- MV4-11 %inh (MV4-11): -4.998%
- CMS %inh (CMS): -2.301%
- CMK %inh (CMK): -6.908%
- MOLM-13 %inh (MOLM-13): -0.4821%

Structure (SMILES): Cc1nn(C)c2cc(N(C)c3ccnc(Nc4cccc(S(N)(=O)=O)c4)n3)ccc12 [SJ000573237-1, U17574/1/1]
- U937 %inh (U937): 9.474%
- CHRF288-11 %inh (CHRF288-11): 20.72%
- M07e %inh (M07e): 4.667%
- ML-2 %inh (ML-2): 1.956%
- MV4-11 %inh (MV4-11): 42.73%
- CMS %inh (CMS): 12.43%
- CMK %inh (CMK): 54.18%
- MOLM-13 %inh (MOLM-13): 82.12%

Structure (SMILES): Cc1c2ccc(N(C)c3ccnc(Nc4cccc(S(N)(=O)=O)c4)n3)cc2nn1C [SJ000573283-1, U17574/40/1]
- U937 %inh (U937): 17.32%
- CHRF288-11 %inh (CHRF288-11): 6.19%
- M07e %inh (M07e): 4.447%
- ML-2 %inh (ML-2): 3.984%
- MV4-11 %inh (MV4-11): 13.33%
- CMS %inh (CMS): 2.522%
- CMK %inh (CMK): 33.97%
- MOLM-13 %inh (MOLM-13): 26.58%
